Test results published in patent publication US20250092065A1, “2-(INDAZOL-5-YL)-6-(PIPERIDIN-4-YL)-1,7-NAPHTHYRIDINE DERIVATIVES AND RELATED COMPOUNDS AS MODULATORS FOR SPLICING NUCLEIC ACIDS AND FOR THE TREATMENT OF PROLIFERATIVE DISEASES” (REMIX THERAPEUTICS INC., priority 2022, published 2025).
Read-outs that look alike come from different tables or passages of the source. One block for each compound: values may come before it.

Experiments:
HTT = test: HiBiT protein abundance assay, HTT (K562 HiBiT knock-in); assay type: cell-based, human; details: HiBiT knock-in K562 cells, 24 hours, top dose 10 μM
Experimental: (§1) Compounds described herein were used to screen for effects on quantitative protein abundance using a HiBit assay system (Promega). Quantitative protein abundance was determined by measuring the protein levels of HiBit-tagged protein targets expressed in cell culture via luminescence using the Nano-Glo HiBiT Lytic Detection System, which uses a split complementation assay format to reconstitute NanoBiT enzyme to generate a luminescent signal. A protein abundance assay was developed such that endogenous protein targets could be modified with the HiBiT peptide tag and their abundance could be assessed after compound treatment. Briefly, K562 cell lines containing a HiBiT-modification were treated with various compounds described herein (e.g., compounds of Formulas (I), or (II)). After treatment for 24 hours, the protein abundance of a specific target was determined by measuring luminescence.
(§2) Cells were maintained in IMIDM with 10% FBS. Before the assay, cells were diluted with […] growth media (IMIDM+[…] media) and were seeded in a 384-well plate at a density of 10000 cells/well (for each cell line listed in Table 6). Each compound was prepared as a 10-point 3-fold serial dilution in DMSO with the top dose at a final concentration of 10 μM in the well. Unmodified K562 cells were added at the previously specified density with DMSO to serve as an assay baseline and positive control (PC) and DMSO only with the respective modified cell lines was added to the negative control (NC) columns. Final DMSO concentration was kept at or below 0.25%. Treated cell plates were placed in an incubator at 37° C. with […] for 24 hours. After 24 hours, 25 μL of Complete HiBit Lytic reagent was added to each well at room temperature (e.g. one plate requiring 10 mL Lytic Buffer, 100 μL LgBiT Protein, 200 μL Lytic Substrate), shaken for 5 minutes at 600 RPM, then left to sit for 10 minutes for signal to stabilize before reading on a Spark Cyto plate reader (Tecan) with a 500 ms measurement time.
(§3) To determine compound effects on protein abundance of each target in Table 6, the percent response for each respective cell line was calculated at each compound concentration as follows:
(§4) % response=100*(S−PC)(NC−PC)
(§5) For the normalized response at each concentration, a four-parameter logistical regression was fit to the data and the response was interpolated at the […] to determine a concentration for protein abundance at 50% (IC50) the untreated control.

Target C = test: HiBiT protein abundance assay, Target C (K562 HiBiT knock-in); assay type: cell-based, human; details: HiBiT knock-in K562 cells, 24 hours, top dose 10 μM
Experimental: as §2, §3, §4, §5

K562 cells = test: Cell Titer Glo 2.0 cell viability (toxicity) assay, K562; details: 500 cells/well, 72 hours
MYB mRNA = test: RT-qPCR splicing assay, MYB mRNA canonical (CJ) and alternative (AJ) junction; assay type: cell-based, human; details: Homo sapiens; for AC50: MYB alternative junction mRNA, read-out: MYB AJ (increase in AJ mRNA, AC50)
Experimental: (§6) Compounds described herein were used to modulate RNA transcript abundance in cells. The expression of a target mRNA was measured by detecting the formation of an exon-exon junction in the canonical transcript (CJ). A compound mediated exon-inclusion event was detected by observing an increase in formation of a new junction with an alternative exon (AJ). Real-time qPCR assays were used to detect these splicing switches and interrogate the potency of various compounds towards different target genes. A high-throughput real time quantitative PCR (RT-qPCR) assay was developed to measure these two isoforms of the mRNA (CJ and AJ) for exemplary genes, such as HTT, SMN2, and MYB, together with a control housekeeping gene, GAPDH or GUSB or PPIA, used for normalization. Briefly, the A673 or K562 cell line was treated with various compounds described herein (e.g., compounds of Formula (I)). After treatment, the levels of the HTT, MYB, or SMN2 mRNA targets were determined from each sample of cell lysate by cDNA synthesis followed by qPCR.
(§7) The A673 cell line was cultured in DMEM with 10% FBS. Cells were diluted with full growth media and plated in a 96-well plate (15,000 cells in 100 ul media per well). The plate was incubated at 37° C. with 5% CO2 for 24 hours to allow cells to adhere. An 11-point 3-fold serial dilution of the compounds was made in DMSO then diluted in media in an intermediate plate. Compounds were transferred from the intermediate plate to the cell plate with the top dose at a final concentration of 10 uM in the well. Final DMSO concentration was kept at or below 0.25%. The cell plate was returned to the incubator at 37° C. with 5% CO2 for an additional 24 hours.
(§8) The K562 cell line was cultured in IMDM with 10% FBS. For K562, cells were diluted with full growth media and plated in either a 96-well plate (50,000 cells in 50 uL media per well) or a 384-well plate (8,000-40,000 cells in 45 uL media per well). An 11-point 3-fold serial dilution of the compounds were made in DMSO then diluted in media in an intermediate plate. Compound was transferred from the intermediate plate to the cell plate with the top dose at a final concentration of 10 uM in the well. Final DMSO concentration was kept at or below 0.25%. Final volume was 100 uL for 96-well plate and 50 uL for 384-well plate. The cell plate was then placed in an incubator at 37° C. with 5% CO2 for 24 hours.
(§9) The cells were then gently washed with 50 uL-100 uL cold PBS before proceeding to addition of lysis buffer. 30 uL-50 μL of room temperature lysis buffer with DNAse I (and optionally RNAsin) was added to each well. Cells were shaken/mixed thoroughly at room temperature for 5-10 minutes for lysis to take place and then 3 uL-5 μL of room temperature stop solution was added and wells were shaken/mixed again. After 2-5 minutes, the cell lysate plate was transferred to ice for RT-qPCR reaction setup. The lysates could also be frozen at −80° C. for later use.
(§10) In some cases, a direct lysis buffer was used. An appropriate volume of 3× lysis buffer (10 mM Tris, 150 mM NaCl, 1.5%-2.5% Igepal and 0.1-1 U/uL RNAsin, pH 7.4) was directly added to either K562 or A673 cells in media and mixed by pipetting 3 times. The plates were then incubated at room temperature with shaking/rocking for 20-50 minutes to allow for lysis to take place. After this time, the cell lysate plate was transferred to ice to set up for the RT-qPCR reactions. The lysates could also be frozen at −80° C. for later use.
(§11) To set up 10 uL RT-qPCR reactions, cell lysates were transferred to 384-well qPCR plates containing the master mix according to the table below. The plates were sealed, gently vortexed, and spun down before the run. The volumes were adjusted accordingly in some instances where the reaction was carried in 20 μL. The table below summarizes the components of the RT-qPCR reactions:
(§12) The RT-qPCR reaction was performed using a QuantStudio (ThermoFisher) under the following fast cycling conditions. […]

MYB = test: HiBiT protein abundance assay, MYB (K562 HiBiT knock-in); assay type: cell-based, human; details: HiBiT knock-in K562 cells, 24 hours, top dose 10 μM
Experimental: as §1, §2, §3, §4, §5

SMN2 mRNA = test: RT-qPCR splicing assay, SMN2 mRNA; assay type: cell-based, human; details: Homo sapiens, canonical junction qPCR panel, Table 4; read-out: SMN2 IC50 (decrease in CJ mRNA levels)
Experimental: as §6, §7, §8, §9, §10, §11, §12

HTT mRNA = test: RT-qPCR splicing assay, HTT mRNA canonical (CJ) and alternative (AJ) junction; assay type: cell-based, human; details: Homo sapiens; for AC50: HTT alternative junction mRNA, read-out: HTT AJ (increase in AJ mRNA, AC50)
Experimental: as §6, §7, §8, §9, §10, §11, §12

[1] = MYB canonical junction mRNA, RT-qPCR, read-out: MYB CJ (decrease in CJ mRNA levels, IC50)
[2] = canonical junction qPCR panel, Table 4, read-out: MYB IC50 (decrease in CJ mRNA levels)
[3] = HTT canonical junction mRNA, RT-qPCR, read-out: HTT CJ (decrease in CJ mRNA levels, IC50)
[4] = canonical junction qPCR panel, Table 4, read-out: HTT IC50 (decrease in CJ mRNA levels)

IC50 (HTT): > 10000 nM
IC50 (Target C): > 10000 nM
IC50 (MYB): > 10000 nM
SMILES: CN(C(=O)Nc1cn[nH]c1)c1cc2nc(N3CCNCC3)ccc2cn1 [Compound 110]

IC50 (HTT): > 10000 nM
IC50 (Target C): > 10000 nM
IC50 (MYB): > 10000 nM
SMILES: O=C(Nc1cn[nH]c1)Nc1cc2nc(N3CCNCC3)ccc2cn1 [Compound 111]

IC50 (HTT): > 10000 nM
IC50 (Target C): > 10000 nM
IC50 (MYB): > 10000 nM
SMILES: O=C(NCc1ccn[nH]1)Nc1cc2nc(N3CCNCC3)ccc2cn1 [Compound 112]

More lines, now with the values behind:

SMILES: Cc1nc2c(F)c(O)c(-c3ccc4nc(N5CC[C@@H](NC(C)(C)C)C5)ccc4n3)cc2o1 (single isomer, unassigned) [Compound 256]
IC50 (HTT): < 100 nM
IC50 (Target C): < 100 nM
Effect of Exemplary Compounds on Cell Viability, K562 (K562 cells): A (A represents <100 nM)
AC50 (MYB mRNA; RT-qPCR): < 100 nM
IC50 (MYB mRNA; [1]): < 100 nM
IC50 (MYB mRNA; [2]): < 100 nM
IC50 (MYB): < 100 nM
IC50 (SMN2 mRNA): < 100 nM
AC50 (HTT mRNA; RT-qPCR): < 100 nM
IC50 (HTT mRNA; [3]): < 100 nM
IC50 (HTT mRNA; [4]): < 100 nM

SMILES: CN1CCC(N(C)c2ccc3nc(-c4cc5cn(C)nc5cc4O)ccc3n2)CC1 [Compound 126]
IC50 (HTT): 100 to 1000 nM
IC50 (Target C): 100 to 1000 nM
AC50 (MYB mRNA; RT-qPCR): 100 to 1000 nM
IC50 (MYB mRNA; [1]): 100 to 1000 nM
IC50 (MYB mRNA; [2]): 100 to 1000 nM
IC50 (MYB): 100 to 1000 nM
IC50 (SMN2 mRNA): < 100 nM
AC50 (HTT mRNA; RT-qPCR): 100 to 1000 nM
IC50 (HTT mRNA; [3]): 100 to 1000 nM
IC50 (HTT mRNA; [4]): 100 to 1000 nM

SMILES: Cn1cc2cc(-c3ccc4nc(N5C[C@H]6CC[C@@H](C5)N6)ccc4n3)c(O)cc2n1 [Compound 135]
IC50 (HTT): 1000 to 10000 nM
IC50 (Target C): 1000 to 10000 nM
AC50 (MYB mRNA; RT-qPCR): 100 to 1000 nM
IC50 (MYB mRNA; [1]): 100 to 1000 nM
IC50 (MYB mRNA; [2]): 100 to 1000 nM
IC50 (MYB): 100 to 1000 nM
IC50 (SMN2 mRNA): < 100 nM
AC50 (HTT mRNA; RT-qPCR): 1000 to 10000 nM
IC50 (HTT mRNA; [3]): 1000 to 10000 nM
IC50 (HTT mRNA; [4]): 1000 to 10000 nM
